The text below walks through data of PubChem BioAssay (NCI).

The structures appear in SMILES notation.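 A five-concentration, 48-hour dose response in 96-well plates underlies each endpoint, interpolated linearly between surrounding concentrations. At the TGI there is no net growth.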

Some test systems named below: RXF 393 renal; SNB-19 CNS; SK-MEL-28 melanoma; MALME-3M melanoma; NCI-H460 lung; UO-31 renal; HOP-92 NSCLC; RPMI-8226 leukemia; SNB-75 CNS.
Test in all cases: NCI tumour cell line growth inhibition, 48 h

In the case of `O=c1cc2n(c(=O)[nH]1)C1OC(C(O)C1O)[C@H]2CCO` (stereo not given in full), the TGI with RXF 393 renal, with SNB-19 CNS, with SK-MEL-28 melanoma, with MALME-3M melanoma, in the test on NCI-H460 lung and in the test with UO-31 renal was > 100 µM throughout. Moreover, in the test on HOP-92 NSCLC, the TGI is > 100 µM.

For the compound `COCC1C(=O)c2cc3c(cc2C12C=CC1(C=C2)OCCO1)OCO3` (stereo not given), the TGI was found to be 20.9 µM in the test with RXF 393 renal; 28.1 µM in the test with SK-MEL-28 melanoma; 4.1 µM with RPMI-8226 leukemia; 27.4 µM in the test on MALME-3M melanoma; 28.9 µM in the test on SNB-75 CNS; 31.9 µM in the test with NCI-H460 lung. This compound gave a TGI in the test on HOP-92 NSCLC of 29.6 µM.

On to `Nc1nc(=O)n(C2CC(O)C(O)C(CO)O2)cc1F` (stereo not given), for which the TGI in the test with RXF 393 renal, with SNB-19 CNS, in the test on SK-MEL-28 melanoma, in the test on RPMI-8226 leukemia, in the test with MALME-3M melanoma and with SNB-75 CNS was > 100 µM each time. Also, the TGI in the test on NCI-H460 lung and in the test on UO-31 renal was > 100 µM in each case.

For `Cc1cc2cc(Cl)ccc2nc1C(=O)c1ccccc1`, the TGI in the test on RXF 393 renal is > 100 µM; in the test with SNB-19 CNS it was > 100 µM; in the test with SK-MEL-28 melanoma, > 100 µM; in the test with RPMI-8226 leukemia, > 100 µM; in the test with MALME-3M melanoma it was > 100 µM; in the test with SNB-75 CNS it was 81.9 µM. Further, in the test with UO-31 renal, the TGI is > 100 µM.

On to `Cc1cc2c(cc1C)N1Cc3c(ccc(C)c3C)N(C2)C1` (tested in a mixture with another compound), for which the TGI in the test on RXF 393 renal, with SNB-19 CNS, with SK-MEL-28 melanoma, in the test on RPMI-8226 leukemia, with SNB-75 CNS and in the test on NCI-H460 lung was > 100 µM throughout.

Regarding `O=c1oc2c3ccc4ccccc4c3n(CCN3CCOCC3)c2c2ccccc12`, the TGI in the test on SNB-19 CNS, with SK-MEL-28 melanoma, in the test on RPMI-8226 leukemia, in the test with MALME-3M melanoma, with SNB-75 CNS and in the test with NCI-H460 lung was > 100 µM each time. The TGI with UO-31 renal and in the test with HOP-92 NSCLC was > 100 µM each time.

For the compound `O=C1OC(c2ccccc2)C2CC3CC4(CCC3CN12)OCCO4` (stereo not given), the TGI in the test on RXF 393 renal, in the test on SNB-19 CNS, with SK-MEL-28 melanoma, with RPMI-8226 leukemia, with SNB-75 CNS and in the test on NCI-H460 lung was > 100 µM throughout. The TGI in the test on UO-31 renal and in the test on HOP-92 NSCLC was > 100 µM throughout.

In the case of `COc1ccc2nc3cc(Cl)ccc3c(NCCC(=O)OCC(O)C(O)C(O[C@H](C)C(=O)NC(C)C(=O)NC(CCC(N)=O)C(=O)OCc3ccccc3)C(C=O)NC(C)=O)c2c1` (stereo not given in full), the TGI in the test with SNB-19 CNS was 62.1 µM; in the test on SK-MEL-28 melanoma it was 32.1 µM; with MALME-3M melanoma it was > 100 µM; with SNB-75 CNS, 31.7 µM; with NCI-H460 lung, 30.4 µM; with UO-31 renal it was 34.7 µM. The TGI with HOP-92 NSCLC amounted to 31.9 µM.

For the compound `COc1ccc(C(=O)/C(=N/Nc2ccccc2)c2ccc(OC)cc2)cc1`, the TGI with RXF 393 renal, with SNB-19 CNS, with SK-MEL-28 melanoma, in the test on RPMI-8226 leukemia, in the test with MALME-3M melanoma and in the test with SNB-75 CNS was > 100 µM in each case. Moreover, the TGI with NCI-H460 lung and in the test on UO-31 renal was > 100 µM in each case.

Turning to `CN(C)c1ccc(/C=C/C(=O)c2ccccc2)cc1Br`, the TGI in the test with SNB-19 CNS is 41.3 µM; with SK-MEL-28 melanoma it was 30.5 µM; in the test on RPMI-8226 leukemia, 44.4 µM; with MALME-3M melanoma, 43 µM; in the test with SNB-75 CNS, 45.7 µM; in the test with NCI-H460 lung it was > 100 µM. In the test with UO-31 renal, the TGI turned out to be 33.3 µM.

Regarding `C[C@]12CCC3[C@@H](C[C@H]4OC(=O)[C@@]35CCC(=O)C=C45)C1CCC2=O` (stereo not given in full), the TGI with RXF 393 renal, in the test on SNB-19 CNS, in the test on SK-MEL-28 melanoma, with RPMI-8226 leukemia, with MALME-3M melanoma and in the test on NCI-H460 lung was > 100 µM in each case. For the same compound, the TGI in the test with UO-31 renal and in the test on HOP-92 NSCLC was > 100 µM each time.

Turning to `CCOC(=O)NC(=O)c1cn(CCCCCOC(=O)NCCCCCCNC(=O)OCCCCCn2cc(C(=O)NC(=O)OCC)c(=O)[nH]c2=O)c(=O)[nH]c1=O`, the TGI with RXF 393 renal, in the test on SNB-19 CNS, in the test with SK-MEL-28 melanoma, in the test with RPMI-8226 leukemia, with MALME-3M melanoma and in the test with SNB-75 CNS was > 100 µM each time. For the same compound, the TGI in the test with NCI-H460 lung and with UO-31 renal was > 100 µM throughout.

On to `CN(C)c1ccccc1CC(c1c[nH]c2ccccc12)c1c[nH]c2ccccc12`, for which the TGI was 20.2 µM with RXF 393 renal; 27.8 µM in the test on SNB-19 CNS; 31.4 µM with MALME-3M melanoma; 22 µM with SNB-75 CNS; 16 µM in the test on NCI-H460 lung; 23.1 µM in the test on UO-31 renal.
